Laboratory results published in patent publication US20220354847A1, “THIAMINE THERAPY FOR FATTY LIVER ASSOCIATED DISEASES” (priority 2019, published 2022).

Legend:
[1] = system: hepatic steatosis; settings: literature (Biomedical Reports 2013; Journal of Hepatology 2016); cited from earlier work
[2] = system: liver histology; settings: literature, cited from earlier work; for associated adverse effects: long-term treatment
[3] = system: hepatic alterations caused by a high-fat diet; settings: mice; literature; cited from earlier work
[4] = system: hepatic steatosis in lambs grown on the HC diet
[5] = system: liver gene expression
[6] = system: circulating leukocytes gene expression; settings: FIG. 14A
[7] = system: lambs grown on the HC diet; settings: within one week of treatment; saline-treated HC group 77.2 mg/dL

N[C@@H](CC(=O)N1CCn2c(nnc2C(F)(F)F)C1)Cc1cc(F)c(F)cc1F [Sitagliptin]
effect on hepatic steatosis / liver fat [1]: ineffective

CN(C)C(=N)N=C(N)N [metformin]
effect on hepatic steatosis / liver fat [1]: no effect

CCc1ccc(CCOc2ccc(CC3SC(=O)NC3=O)cc2)nc1 (stereo not drawn) [pioglitazone]
associated adverse effects [2]: weight gain

O=C1CCC(N2C(=O)c3ccccc3C2=O)C(=O)N1 (stereo not drawn) [thalidomide]
hepatic alterations caused by a high-fat diet [3]: improvements

Cc1ncc(C[n+]2csc(CCO)c2C)c(N)n1 [thiamine]
hepatocellular steatosis (macro-vesicular or micro-vesicular, histology score 0 to 3) ([4]; HC vs LC and THC, FIG. 11B, 11D): significantly increased in the HC compared to both the LC and THC groups
hepatic steatosis (liver fat content, percentage of wet liver weight) ([4]; THC group, HC diet + thiamine 300 mg/animal s.c. 3 then 5 times a week for the last 85 of 135 days, HC=8.1%, LC 3.8%, P<0.0001): 4.8%
hepatic index (liver weight/BW) ([4]; THC vs HC, FIG. 11C): no significant effect
liver expression of APOB ([5]; FIG. 13C): No effects
liver expression of the energy-sensing axis and of the transporters of NEFA (CD36, SLC27A6, SLC27A5) ([5]; FIG. 13D): No effect
liver gene expression of NFKB1, IL1B, CCL2 and IL8 ([5]; FIG. 14B): No significant alterations
liver expression of catalase ([5]; FIG. 14C): did not affect
liver expression of TNF ([5]; P=0.005, FIG. 14B): lowered
liver expression of superoxide dismutase 2 (SOD2) ([5]; P=0.02, FIG. 14C): increase
liver expression of genes coding for AMPK (PRKAA2), PGC-1α (PPARGC1A) and PPAR-α (PPARA) ([5]; THC vs HC): did not affect
Perilipin 2 transcripts in liver ([5]; THC vs HC, P=0.002, FIG. 13C): lowered Perilipin 2 transcripts substantially
liver expression of SIRT1 ([5]; between the treatments, FIG. 13A): not different
abundance of MTTP transcripts in liver ([5]; compared with untreated HC group, P=0.001): increased
liver expression of glutathione peroxidase 1 (GPX1) ([5]; in vivo): no detected treatment effects
inflammatory state increased by the HC diet (proinflammatory gene expression) ([5]; leukocyte and liver, FIG. 14 legend): partially alleviated
leukocyte expression of IL1B, TNF and IFNG [6]: No treatment effects
leukocyte expression of CXCL8 ([6]; thiamine-treated animals, P=0.05): lower expression
blood glucose levels [7]: 71.7 mg/dL

vitamin E
effect on liver histology ([2]; biopsy-proven NASH patients): improve liver histology
associated adverse effects [2]: modest increase in the risk for prostate cancer
